Experimental data from patent US9556196B2, “Anti-platelet compound addition salt” (GUANGZHOU HEERSHI PHARMA DEVELOPMENT CO., LTD, priority 2011, dated 2017).
Where a name gives a salt, the structure may show the parent alone. Read-outs that look alike come from different tables or passages of the source.

Assays:
[1] = Accelerated stability test of the sulfonates formulated into tablets or capsules; format: physicochemical; conditions: tablets or capsules with excipients, 50° C.±2° C., relative humid of 75% ±5%, end of the third month, TLC, stable = no occurrence of impurity
Method: A solid active ingredient with excellent stability is necessary for a solid formulation. To screen a suitable salt with chemical stability, the sulfonates prepared above was formulated into tablets or capsules with powdered excipients. The tablets included microcrystalline cellulose and anhydrous calcium dihydrogen phosphate with a ratio of 1:1. The capsules included Mannitol and Corn starch with a ratio of 4:1. And then, the tablets and the capsules were placed at the temperature of 50° C.±2° C. (incubator with constant temperature and humidity) with relative humid of 75% ±5% (saturated sodium chloride solution) for accelerated test. Sampling at the end of the third month, the tablets and the capsules were crushed and extracted with methanol:chloroform (1:1), and TLC was used to check the stability of the product and the salt was deemed as stable with no occurrence of impurity.

wistar rat [2] = assay: Current injury carotid artery thrombosis method (time of thrombosis formation); format: in vivo; conditions: oral gavage, consecutive 3 days, 2 hours after the last administration
Method: To compare the pharmacologic effect between the screened salts and the free compound of formula I, the following arterial thrombosis test was carried out with clopidogrel as the positive drug.
I. Investigation on the Time of Thrombosis Formation,
(§1) Animal: wistar rat, 220-260 g in weight, male, 6-8 each group.
Grouping: control group, positive drug group (clopidogrel, 10 mg/kg), free compound of formula I, hydrochloride of the compound of formula I and L-camphor sulfonate of the compound of formula I (two dosages for each group, 3 and 9 mg/kg respectively based on the free compound of formula I).
Method: current injury carotid artery thrombosis method and platelet aggregation test.
Drug Administration: oral gavage.
Index observed: the drug was administrated for consecutive 3 days. 2 hours after the last administration, current injury carotid artery thrombosis method was carried out to observe the time of thrombosis formation. Femoral artery blood was sampled and separated to obtain the platelet. The effect on platelet aggregation was investigated with inducing agent ADP for each group, and at the same time, the bleeding time was determined.

wistar rat [3] = assay: Arteriovenous shunt thrombosis in polyethylene tube method (weight of thrombosis); format: in vivo; conditions: oral gavage, consecutive 3 days, 2 hours after the last administration, shunt lasted 15 min, wet or dry weight not stated
Method: II. Investigation on the Weight of Thrombosis
as §1
Grouping: the same as above.
Method: Arteriovenous shunt thrombosis in polyethylene tube method.
Index Observed The drug was administrated for consecutive 3 days. 2 hours after the last administration, arteriovenous anastomosis thrombosis was lasted for 15 min, the wet weight and dry weight of the thrombosis formed was investigated.

[4] = Solubility test for several solid acid addition salts; format: physicochemical
Method: The Solubility Test for Several Solid Acid Addition Salt
In general, it is necessary for a drug with good bioavailability to have a good solubility. Typically, the desired solubility of a drug in a pH range of 1-7.5 is at least 1 mg/ml.

[5] = Water solubility of the free compound (inventor's research); format: physicochemical
[6] = Stability of the free compound in aqueous solution with weak acid or base; format: physicochemical; conditions: presence of weak acid or base in an aqueous solution for a period of time; produces degradation products
[7] = 3 mg/kg based on the free compound of formula I
[8] = 9 mg/kg based on the free compound of formula I

SMILES | Stability [1] | Thrombosis formation time (wistar rat [2]; [7]) | Thrombosis formation time (wistar rat [2]; [8]) | Weight of thrombosis (wistar rat [3]; [7]) | Weight of thrombosis (wistar rat [3]; [8]) | Solubility [4] [µg/mL] | further results
COC(=O)C(c1ccccc1Cl)N1CCc2sc(OC(=O)c3ccccc3OC(C)=O)cc2C1 [L-camphor sulfonate] | Stable | 250.4 ± 35.2 ,Y,* s | 360.2 ± 55.9#,H,&,Y,* s | 3.0 ± 0.7#,Y mg | 2.5 ± 0.4 H,&,Y mg | 4700 | Stability ([1]; listed as camphor sulfonate): the most stable one
COC(=O)C(c1ccccc1Cl)N1CCc2sc(OC(=O)c3ccccc3OC(C)=O)cc2C1 (centres unmarked) [Hydrochloride] |  | 210.4 ± 51.1 s | 319.6 ± 35.2#,H,&,Y s | 3.2 ± 0.7#,Y mg | 2.8 ± 0.5 mg | 20 | 
COC(=O)C(c1ccccc1Cl)N1CCc2sc(OC(=O)c3ccccc3OC(C)=O)cc2C1 (centres unmarked) [P-toluenesulfonate] | Stable |  |  |  |  | 1200 | 
COC(=O)C(c1ccccc1Cl)N1CCc2sc(OC(=O)c3ccccc3OC(C)=O)cc2C1 (centres unmarked) [Benzenesulfonate] |  |  |  |  |  |  | Solubility ([4]; read-out: Solubility): 2500 µg/mL
COC(=O)C(c1ccccc1Cl)N1CCc2sc(OC(=O)c3ccccc3OC(C)=O)cc2C1 (centres unmarked) [Methanesulfonate] | Stable |  |  |  |  | 8200 | 
COC(=O)C(c1ccccc1Cl)N1CCc2sc(OC(=O)c3ccccc3OC(C)=O)cc2C1 (centres unmarked) [Free Base, methyl 2-(2-chlorophenyl)-2-(2-acetyl-salicylic acyloxy-4,5,6,7-tetrahydro-thieno[3,2-C]pyridine)-5-acetate] |  | 165 ± 22.4 s | 261 ± 54.3#,& s | 4.0 ± 0.6 mg | 3.0 ± 0.5#,& mg |  | Water solubility (in words) [5]: almost insoluable in water; Stability (in words) [6]: not stable enough
COC(=O)[C@H](c1ccccc1Cl)N1CCc2sccc2C1 [Clopidogrel, clopidogrel, reference compound] |  |  |  |  |  |  | Thrombosis formation time (wistar rat [2]; 10 mg/kg): 249.9 ± 58.0 s; Weight of thrombosis (wistar rat [3]; 10 mg/kg): 3.2 ± 0.5 mg
COC(=O)C(c1ccccc1Cl)N1CCc2sc(OC(=O)c3ccccc3OC(C)=O)cc2C1 (centres unmarked) [Hydrobromide] |  |  |  |  |  | 500 | 
